Results on 17 molecules are retold here after US9359371B2, “Bicyclic substituted pyrimidine compounds” (Xuanzhu Pharma Co., Ltd., priority 2012, dated 2016).

Read-outs that look alike come from different tables or passages of the source.

By half-life is commonly meant how long it takes for the measured level to halve. Broadly, the bioavailability is the share of a dose that reaches the circulation, judged against a reference dose that is usually intravenous. By IC50 is commonly meant the concentration that inhibits the measured activity by half. One may read the AUC(0-inf) as the area under the concentration-time curve extrapolated to infinity. Low readings indicate less exposure, high ones more exposure. As a reminder, the Cmax is the peak of the concentration-time curve. By Tmax is commonly meant the time at which the peak concentration occurs.

Data set [1] is described as follows: Pharmacokinetics (PK) in SD rats. It is filed as in vivo. As to conditions: rat; for half-life / bioavailability / AUC(0-inf) / Cmax / Tmax: SD, plasma; for bioavailability: read-out: F % (absolute bioavailability). The procedure: Experiment 9: Assay of Pharmacokinetics (PK) of the Compounds of the Present Invention in SD Rats
Compound 1-54 of the present invention were prepared by the methods described in Example 1 to Example 54 of the present invention.
The control drug Avanafil, of which the structure was stated above, was purchased commercially.
Collection of the rat's blood: The animal was fixed. The tail was warmed with a water bath 10 min before the collection time. About 200 μL of whole blood was collected from the tail vein. The collected blood was collected into anticoagulant tubes containing heparin sodium. The blood samples were centrifuged at 4° C. by 8000 rpm for 6 min to give the plasma samples, which should be prepared within 30 min after the collection of blood. The plasma samples were stored in a freezer of −80° C. until test.
The result output by Analyst 1.5.1 of AB Company was used as the concentration of the tested sample (plasma sample). The mean value, standard deviation, variable coefficient and the like were calculated by Microsoft Excel (except for the result directly output by Analyst 1.5.1). Parameters of PK were calculated by Pharsight Phoenix 6.2 software. Formula for calculating oral bioavailability: F %=AUCinf−po*Doseiv/AUCinf−iv*Dosepo.

For another data set, the target named is PDE-5A enzyme (Homo sapiens (Human), UniProt O76074). As to the kind of experiment: Caliper Mobility-Shift PDE-5A Assay. It counts as biochemical. The note with it: Table 1; Avanafil value is the control. The procedure:
Experiment 1: Measurement of Enzymatic Activity In Vitro
PDE-5A enzyme: humanized PDE-5 enzyme, SignalChem, Cat#93-31G-20.
Method: enzyme assay, Caliper Mobility-Shift PDE-5A Assay:
The test compound was accurately weighed, dissolved in DMSO, mixed thoroughly and formulated into 10 mM.
The maximum final concentration of the compound was 10 μM. The plate was incubated at 30° C. for 1 h, and 20 μL of 70 μM EDTA was then added to stop the reaction. 26 μL of solution of each well was transferred to a 384-well plate. The conversion was read on a EZ reader II. The inhibition rate was calculated by the formula below, and used to calculate IC50 by Prism 5.0 Inhibition rate=[Conversion (ZPE)−Conversion (sample)]×100/[Conversion (ZPE)−Conversion (HPE)]
Note: HPE: control without enzyme; ZPE: control without a test compound

The mark [2] stands for this setting: po, intragastric administration, 2 mg/kg.
The mark [3] stands for this setting: po, intragastric administration, 5 mg/kg.

Turning to `COc1ccc(CNc2nc(N3CCC4(CC4)C3)ncc2C(=O)N[C@H]2CC[C@H](O)CC2)cc1Cl` (stereo in doubt) [Compound 43, 4-((3-chloro-4-methoxybenzyl)amino)-N-(trans-4-hydroxycyclohexyl)-2-(5-azaspiro[2.4]heptan-5-yl)pyrimidine-5-formamide], in data set [1] (setting [2]), the half-life was 3.31 h and the bioavailability was 18%. In data set [1] (intravenous injection, 1 mg/kg), the half-life was 1.3 h, the Cl_obs stood at 53.8 mL/min/kg and the Vss_obs came out at 5.18 L/kg. The IC50 at PDE-5A enzyme turned out to be 15.4 nM.

For the molecule `COc1ccc(CNc2nc(N3CC4CC4C3)ncc2C(=O)NCc2ccccn2)cc1Cl` (stereo not drawn) [Compound 2, 2-(3-azabicyclo[3.1.0]hexan-3-yl)-4-((3-chloro-4-methoxybenzyl)amino)-N-(pyridin-2-ylmethyl)pyrimidine-5-formamide], in data set [1] (setting [2]), the AUC(0-inf) came out at 69 ng·h/mL, the peak concentration (Cmax) was determined as 12 ng/mL, the time of peak concentration (Tmax) amounted to 1 h and the half-life was 2.95 h. Besides, the bioavailability in data set [1] (setting [2]) amounted to 12%. In data set [1] (intravenous injection, 1 mg/kg), this molecule gave an AUC(0-inf) of 219 ng·h/mL, a half-life of 1.78 h, a Cl_obs of 77.2 mL/min/kg and a Vss_obs of 10.57 L/kg.

Take `COc1ccc(CNc2nc(N3CCC4(CC3)CC4)ncc2C(=O)NCc2ncccn2)cc1Cl` [Compound 15, 4-((3-chloro-4-methoxybenzyl)amino)-N-(pyrimidin-2-ylmethyl)-2-(6-azaspiro[2.5]octan-6-yl)pyrimidine-5-formamide]: on PDE-5A enzyme, the IC50 came to 26.8 nM.

In the case of `COc1ccc(CNc2nc(N3CCC4(CC4)C3)ncc2C(=O)NCc2ccccc2)cc1Cl` [Compound 21, N-benzyl-4-((3-chloro-4-methoxybenzyl)amino)-2-(5-azaspiro[2.4]heptan-5-yl)pyrimidine-5-formamide], the half-inhibitory concentration (IC50) on PDE-5A enzyme is 17.3 nM.

As for `COc1ncc(CNc2nc(N3CC4CC4C3)ncc2C(=O)NCc2ncccn2)cc1Cl` (stereo not drawn) [Compound 25, 2-(3-diazabicyclo[3.1.0]hexan-3-yl)-4-(((5-chloro-6-methoxypyridin-3-yl)methyl)amino)-N-(pyrimidin-2-ylmethyl)pyrimidine-5-formamide], the IC50 on PDE-5A enzyme was determined as 47 nM.

With `COc1ccc(CNc2nc(N3CC4CC4C3CO)ncc2C(=O)NCc2ncccn2)cc1Cl` (stereo not drawn) [Compound 27, 4-((3-chloro-4-methoxybenzyl)amino)-2-(2-(hydroxylmethyl)-3-azabicyclo[3.1.0]hexan-3-yl)-N-(pyrimidin-2-ylmethyl)pyrimidine-5-formamide], the IC50 at PDE-5A enzyme was found to be 10.4 nM.

Consider `COc1ccc(CNc2nc(N3CCC4(CCC4)C3)ncc2C(=O)NCc2ccccc2)cc1Cl` [Compound 28, N-benzyl-4-((3-chloro-4-methoxybenzyl)amino)-2-(6-azaspiro[3.4]octan-6-yl)pyrimidine-5-formamide], for which the IC50 on PDE-5A enzyme is 22.6 nM.

For the molecule `COc1ccc(CNc2nc(N3CC4CC4C3CO)ncc2C(=O)NCCN2CCOCC2)cc1Cl` (stereo not drawn) [Compound 34, 4-((3-chloro-4-methoxybenzyl)amino)-2-(2-(hydroxymethyl)-3-azabicyclo[3.1.0]hexan-3-yl)-N-(2-morpholinoethyl)pyrimidine-5-formamide], the IC50 at PDE-5A enzyme turned out to be 34.9 nM.

For the molecule `COc1ccc(CNc2nc(N3CC4CC4C3CO)ncc2C(=O)N[C@H]2CC[C@H](O)CC2)cc1Cl` (stereo partly drawn) [Compound 35, 4-((3-chloro-4-methoxybenzyl)amino)-N-(trans-4-hydroxycyclohexyl)-2-(2-(hydroxymethyl)-3-azabicyclo[3.1.0]hexan-3-yl)pyrimidine-5-formamide], the IC50 at PDE-5A enzyme came out at 47.2 nM.

With `COc1ccc(CNc2nc(N3CCC4(CC3)CC4)ncc2C(=O)N[C@H]2CC[C@H](O)CC2)cc1Cl` [Compound 36, 4-((3-chloro-4-methoxybenzyl)amino)-N-(trams-4-hydroxycyclohexyl)-2-(6-azaspiro[2.5]octan-6-yl)pyrimidine-5-formamide], on PDE-5A enzyme, the IC50 was 52.4 nM.

Turning to `COc1ccc(CNc2nc(N3CC4CC4C3CO)ncc2C(=O)NCc2ccccn2)cc1Cl` (stereo not drawn) [Compound 37, 4-((3-chloro-4-methoxybenzyl)amino)-2-(2-(hydroxymethyl)-3-azabicyclo[3.1.0]hexan-3-yl)-N-(pyridin-2-ylmethyl)pyrimidine-5-formamide], the IC50 at PDE-5A enzyme was 33.3 nM.

Take `COc1ccc(CNc2nc(N3CCC4(CC4)C3)ncc2C(=O)NCCN2CCOCC2)cc1Cl` [Compound 39, 4-((3-chloro-4-methoxybenzyl)amino)-N-(2-morpholinoethyl)-2-(5-azaspiro[2.4]heptan-5-yl)pyrimidine-5-formamide]: the half-inhibitory concentration (IC50) at PDE-5A enzyme stood at 21.4 nM.

On to `CCOc1ccc(CNc2nc(N3CC4CC4C3)ncc2C(=O)N[C@H]2CC[C@H](O)CC2)cc1F` (stereo partly drawn) [Compound 49, 2-(3-azabicyclo[3.1.0]hexan-3-yl)-4-((3-fluoro-4-ethoxybenzyl)amino)-N-((trans)-4-hydroxycyclohexyl)pyrimidine-5-formamide], for which, in data set [1] (setting [3]), the AUC(0-inf) stood at 5840 ng·h/mL, the highest level (Cmax) was 505 ng/mL, the Tmax was found to be 4 h and the half-life was 4.1 h. In addition, the bioavailability in data set [1] (setting [3]) came out at 60%. In data set [1] (intravenous injection, 2 mg/kg), this molecule gave an AUC(0-inf) of 3860 ng·h/mL, a half-life of 3.9 h, a Cl_obs of 8.67 mL/min/kg and a Vss_obs of 2.46 L/kg.

As to `CCOc1ccc(CNc2nc(N3CC4CC4C3)ncc2C(=O)N[C@H]2CC[C@H](O)CC2)cc1C` (stereo partly drawn) [Compound 51, 2-(3-azabicyclo[3.1.0]hexan-3-yl)-N-(trans-4-hydroxycyclohexyl)-4-((4-ethoxy-3-methylbenzyl)amino)pyrimidine-5-formamide], in data set [1] (setting [3]), the AUC(0-inf) was 5800 ng·h/mL, the Cmax was determined as 402 ng/mL, the Tmax is 6 h and the half-life was 7.3 h. The bioavailability in data set [1] (setting [3]) came out at 52%. In data set [1] (intravenous injection, 2 mg/kg), the AUC(0-inf) came out at 4400 ng·h/mL, the half-life is 8.8 h, the Cl_obs is 7.83 mL/min/kg and the Vss_obs was 5.58 L/kg.

As to `CCOc1ccc(CNc2nc(N3CC4CC4C3)ncc2C(=O)N[C@H]2CC[C@H](O)CC2)cc1Cl` (stereo partly drawn) [Compound 52, 2-(3-azabicyclo[3.1.0]hexan-3-yl)-4-((3-chloro-4-ethoxybenzyl)amino)-N-((trans)-4-hydroxycyclohexyl)pyrimidine-5-formamide], in data set [1] (setting [3]), the AUC(0-inf) came to 6000 ng·h/mL, the highest level (Cmax) was 392 ng/mL, the time of peak concentration (Tmax) came out at 6 h and the half-life was 8.4 h. Besides, the bioavailability in data set [1] (setting [3]) was found to be 65%. In data set [1] (intravenous injection, 2 mg/kg), this molecule showed an AUC(0-inf) of 3710 ng·h/mL, a half-life of 4.6 h, a Cl_obs of 9 mL/min/kg and a Vss_obs of 3.02 L/kg.

For `COc1ccc(CNc2nc(N3CC4CC4C3)ncc2C(=O)N[C@H]2CC[C@H](O)CC2)cc1C(F)(F)F` (stereo partly drawn) [Compound 53, 2-(3-azabicyclo[3.1.0]hexan-3-yl)-N-((trans)-4-hydroxycyclohexyl)-4-((4-methoxy-3-(trifluoromethyl)benzyl)amino)pyrimidine-5-formamide], in data set [1] (setting [3]), the AUC(0-inf) was found to be 917 ng·h/mL, the peak level (Cmax) was 156 ng/mL, the Tmax turned out to be 4 h and the bioavailability came out at 25%. In data set [1] (intravenous injection, 2 mg/kg), this molecule showed a total exposure AUC(0-inf) of 1500 ng·h/mL, a half-life of 1.8 h, a Cl_obs of 22.3 mL/min/kg and a Vss_obs of 2.33 L/kg.

Take `CCOc1ccc(CNc2nc(N3CC4CC4C3)ncc2C(=O)N[C@H]2CC[C@H](O)CC2)cc1C(F)(F)F` (stereo partly drawn) [Compound 54, 2-(3-azabicyclo[3.1.0]hexan-3-yl)-N-((trans)-4-hydroxycyclohexyl)-4-((4-ethoxy-3-(trifluoromethyl)benzyl)amino)pyrimidine-5-formamide]: in data set [1] (setting [3]), the area under the curve AUC(0-inf) came to 1420 ng·h/mL, the peak level (Cmax) was 200 ng/mL, the time of peak concentration (Tmax) came to 4 h and the half-life was 2.7 h. Besides, in data set [1] (setting [3]), the bioavailability came to 40%. Besides, in data set [1] (intravenous injection, 2 mg/kg), the AUC(0-inf) is 1430 ng·h/mL, the half-life was 2.3 h, the Cl_obs came out at 23.8 mL/min/kg and the Vss_obs stood at 3.87 L/kg.
